Assay results from PubChem BioAssay (NCI).
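The concentration for 50% growth inhibition is given as GI50. TGI denotes the concentration required for complete inhibition of growth.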

Tests used:
Assay in all cases: DTP human tumour cell line panel, 384-well format
[1] = tested on: SN12C renal
[2] = tested on: 786-0 renal
[3] = tested on: OVCAR-3 ovarian
[4] = tested on: RXF 393 renal
[5] = tested on: NCI-H23 lung
[6] = tested on: HT29 colon
[7] = tested on: SK-MEL-2 melanoma
[8] = tested on: MALME-3M melanoma
[9] = tested on: NCI-H522 lung
[10] = tested on: MDA-MB-435 melanoma
[11] = tested on: HCT-116 colon
[12] = tested on: TK-10 renal
[13] = tested on: SW-620 colon
[14] = tested on: M14 melanoma
[15] = tested on: OVCAR-8 ovarian
[16] = tested on: CAKI-1 renal
[17] = tested on: OVCAR-5 ovarian
[18] = tested on: EKVX NSCLC
[19] = tested on: ACHN renal
[20] = tested on: MOLT-4 leukemia
[21] = tested on: SNB-19 CNS
[22] = tested on: OVCAR-4 ovarian
[23] = tested on: UACC-62 melanoma
[24] = tested on: A549 NSCLC
[25] = tested on: U251 glioblastoma
[26] = tested on: HOP-92 NSCLC
[27] = tested on: MDA-MB-468 breast
[28] = tested on: SF-295 CNS
[29] = tested on: DU-145 prostate
[30] = tested on: MCF7 breast
[31] = tested on: T-47D breast
[32] = tested on: UACC-257 melanoma
[33] = tested on: PC-3 prostate
[34] = tested on: BT-549 breast
[35] = tested on: MDA-MB-231 breast
[36] = tested on: SK-MEL-5 melanoma
[37] = tested on: NCI-H226 lung
[38] = tested on: NCI-H460 NSCLC
[39] = tested on: IGROV1 ovarian
[40] = tested on: COLO 205 colon
[41] = tested on: NCI-H322M lung
[42] = tested on: KM12 colon
[43] = tested on: UO-31 renal
[44] = tested on: SNB-75 CNS
[45] = tested on: HL-60(TB) leukemia
[46] = tested on: SK-OV-3 ovarian
[47] = tested on: HS 578T breast
[48] = tested on: HOP-62 NSCLC
[49] = tested on: SK-MEL-28 melanoma
[50] = tested on: SR leukemia
[51] = tested on: HCT-15 colon
[52] = tested on: SF-268 CNS
[53] = tested on: K-562 leukemia
[54] = tested on: A498 renal
[55] = tested on: SF-539 CNS

Compound: CC(C)(C)C[C@H]1NC(C(=O)NCC[C@H](O)CO)[C@H](c2cccc(Cl)c2)[C@@]12C(=O)Nc1cc(Cl)c(F)cc12 (stereo not given in full)
- GI50 [1]: 17.1 µM
- TGI [1]: 30.9 µM
- GI50 [2]: 15.6 µM
- TGI [2]: 29 µM
- GI50 [3]: 13.7 µM
- TGI [3]: 26.7 µM
- GI50 [4]: 2.38 µM
- TGI [4]: 15.3 µM
- GI50 [5]: 15 µM
- TGI [5]: 28.3 µM
- GI50 [6]: 15.8 µM
- TGI [6]: 29.4 µM
- GI50 [7]: 14.6 µM
- TGI [7]: 27.7 µM
- GI50 [8]: 0.582 µM
- TGI [8]: 14.7 µM
- GI50 [9]: 12.8 µM
- TGI [9]: 25.5 µM
- GI50 [10]: 14.6 µM
- TGI [10]: 27.8 µM
- GI50 [11]: 0.962 µM
- TGI [11]: 13.8 µM
- GI50 [12]: 14.6 µM
- TGI [12]: 28.2 µM
- GI50 [13]: 16.8 µM
- TGI [13]: 30.6 µM
- GI50 [14]: 10.3 µM
- TGI [14]: 22.1 µM
- GI50 [15]: 16.4 µM
- TGI [15]: 30.1 µM
- GI50 [16]: 0.605 µM
- TGI [16]: 11.7 µM
- GI50 [17]: 15.9 µM
- TGI [17]: 29.5 µM
- GI50 [18]: 12.5 µM
- TGI [18]: 25 µM
- GI50 [19]: 1.36 µM
- TGI [19]: 10.6 µM
- GI50 [20]: 0.181 µM
- TGI [20]: 0.341 µM
- GI50 [21]: 15.8 µM
- TGI [21]: 29.4 µM
- GI50 [22]: 11.9 µM
- TGI [22]: 24.3 µM
- GI50 [23]: 0.591 µM
- TGI [23]: 11.1 µM
- GI50 [24]: 2.94 µM
- TGI [24]: 14.1 µM
- GI50 [25]: 14.4 µM
- TGI [25]: 27.6 µM
- GI50 [26]: 14.7 µM
- TGI [26]: 27.8 µM
- GI50 [27]: 3.31 µM
- TGI [27]: 16.1 µM
- GI50 [28]: 12.9 µM
- TGI [28]: 25.6 µM
- GI50 [29]: 15.8 µM
- TGI [29]: 29.4 µM
- GI50 [30]: 0.243 µM
- TGI [30]: 1.77 µM
- GI50 [31]: 11.7 µM
- TGI [31]: 24 µM
- GI50 [32]: 1.76 µM
- TGI [32]: 5.36 µM
- GI50 [33]: 13.1 µM
- TGI [33]: 25.9 µM
- GI50 [34]: 15.1 µM
- TGI [34]: 28.5 µM
- GI50 [35]: 16.2 µM
- TGI [35]: 29.8 µM
- GI50 [36]: 2.79 µM
- TGI [36]: 16.4 µM
- GI50 [37]: 0.515 µM
- TGI [37]: 2.17 µM
- GI50 [38]: 14.6 µM
- TGI [38]: 27.9 µM
- GI50 [39]: 6.37 µM
- TGI [39]: 20.2 µM
- GI50 [40]: 15.8 µM
- TGI [40]: 29.3 µM
- GI50 [41]: 17.5 µM
- TGI [41]: 31.4 µM
- GI50 [42]: 1.6 µM
- TGI [42]: 12.8 µM
- GI50 [43]: 4.29 µM
- TGI [43]: 15.9 µM
- GI50 [44]: 10.9 µM
- TGI [44]: 22.9 µM
- GI50 [45]: 4.2 µM
- TGI [45]: 16.5 µM
- GI50 [46]: 13.9 µM
- TGI [46]: 27.1 µM
- GI50 [47]: 6.45 µM
- TGI [47]: 20.4 µM
- GI50 [48]: 16.5 µM
- TGI [48]: 30.2 µM
- GI50 [49]: 16.7 µM
- TGI [49]: 30.4 µM
- GI50 [50]: 0.2 µM
- TGI [50]: 0.394 µM
- GI50 [51]: 17.4 µM
- TGI [51]: 31.5 µM
- GI50 [52]: 16 µM
- TGI [52]: 29.6 µM
- GI50 [53]: 13.7 µM
- TGI [53]: 27 µM
- GI50 [54]: 1.12 µM
- TGI [54]: 11.7 µM
- GI50 [55]: 13.4 µM
- TGI [55]: 26.3 µM

Compound: COC1(C(=O)N[C@@H](C)c2ccc(-n3cc(F)cn3)nc2)CCC(c2nc(C)cc(Nc3cc(C)[nH]n3)n2)CC1 (stereo not given in full)
- GI50 [1]: 0.493 µM
- TGI [1]: 10 µM
- GI50 [2]: 1.82 µM
- TGI [2]: 6.42 µM
- GI50 [3]: 1.67 µM
- TGI [3]: 12.8 µM
- GI50 [4]: 0.138 µM
- TGI [4]: 0.671 µM
- GI50 [5]: 0.629 µM
- TGI [5]: 10.6 µM
- GI50 [6]: 4.94 µM
- TGI [6]: 19.1 µM
- GI50 [7]: 11 µM
- TGI [7]: 23.1 µM
- GI50 [8]: 11.3 µM
- TGI [8]: 23.6 µM
- GI50 [9]: 1.19 µM
- TGI [9]: 3.11 µM
- GI50 [10]: 11.7 µM
- TGI [10]: 24.1 µM
- GI50 [11]: 4.04 µM
- TGI [11]: 17.3 µM
- GI50 [12]: 1.4 µM
- TGI [12]: 3.93 µM
- GI50 [13]: 2.58 µM
- TGI [13]: 17 µM
- GI50 [14]: 11.3 µM
- TGI [14]: 23.4 µM
- GI50 [15]: 3.35 µM
- TGI [15]: 12.9 µM
- GI50 [16]: 1.28 µM
- TGI [16]: 2.69 µM
- GI50 [17]: 2.31 µM
- TGI [17]: 13.9 µM
- GI50 [18]: 0.545 µM
- TGI [18]: 2.29 µM
- GI50 [19]: 0.896 µM
- TGI [19]: 4.45 µM
- GI50 [20]: 1.84 µM
- TGI [20]: 5.62 µM
- GI50 [21]: 3.69 µM
- TGI [21]: 18.1 µM
- GI50 [22]: 2.12 µM
- TGI [22]: 17.8 µM
- GI50 [23]: 5.55 µM
- TGI [23]: 18.5 µM
- GI50 [24]: 2.41 µM
- TGI [24]: 12 µM
- GI50 [25]: 1.54 µM
- TGI [25]: 12.3 µM
- GI50 [26]: 0.691 µM
- TGI [26]: 2.67 µM
- GI50 [27]: 1.74 µM
- TGI [27]: 4.8 µM
- GI50 [28]: 1.39 µM
- TGI [28]: 4.21 µM
- GI50 [29]: 1.72 µM
- TGI [29]: 4.04 µM
- GI50 [30]: 2 µM
- TGI [30]: 14.4 µM
- GI50 [31]: 2.28 µM
- TGI [31]: 10.7 µM
- GI50 [32]: 15.7 µM
- TGI [32]: 29.3 µM
- GI50 [33]: 3.42 µM
- TGI [33]: 15.7 µM
- GI50 [34]: 0.813 µM
- TGI [34]: 2.56 µM
- GI50 [35]: 2.6 µM
- TGI [35]: 14 µM
- GI50 [36]: 2.3 µM
- TGI [36]: 11.2 µM
- GI50 [37]: 0.246 µM
- TGI [37]: 2.08 µM
- GI50 [38]: 0.0527 µM
- TGI [38]: 13.7 µM
- GI50 [39]: 0.304 µM
- TGI [39]: 1.37 µM
- GI50 [40]: 13.8 µM
- TGI [40]: 26.9 µM
- GI50 [41]: 2.12 µM
- TGI [41]: 11.1 µM
- GI50 [42]: 5.12 µM
- TGI [42]: 18.3 µM
- GI50 [43]: 1.14 µM
- TGI [43]: 2.78 µM
- GI50 [44]: 0.285 µM
- TGI [44]: 1.32 µM
- GI50 [45]: 5.4 µM
- TGI [45]: 18.5 µM
- GI50 [46]: 0.605 µM
- TGI [46]: 2.64 µM
- GI50 [47]: 0.253 µM
- TGI [47]: 1.58 µM
- GI50 [48]: 1.46 µM
- TGI [48]: 6.13 µM
- GI50 [49]: 12 µM
- TGI [49]: 24.5 µM
- GI50 [50]: 2.13 µM
- TGI [50]: 5.27 µM
- GI50 [51]: 4.58 µM
- TGI [51]: 17.2 µM
- GI50 [52]: 1.38 µM
- TGI [52]: 3.69 µM
- GI50 [53]: 1.7 µM
- TGI [53]: 11.6 µM
- GI50 [54]: 1.83 µM
- TGI [54]: 4.4 µM
- GI50 [55]: 0.226 µM
- TGI [55]: 1.12 µM
